# Laboratory results: patent publication US4278467A, “Substitutive additives for isopropyl alcohol in fountain solution for lithographic offset printing” (priority 1979, dated 1981)
# Read-outs that look alike come from different tables or passages of the source.
# Experiments:
# [1] = Solubility of selected materials in water, expressed in percent by weight at 20° C.; type: physicochemical
# [2] = Solubility of water in the material, percent by weight at 20° C.; type: physicochemical; conditions: water dissolved in the additive
# [3] = Surface tension as measured by the duNouy tensiometer device; type: physicochemical
# Text: In continuous dampening systems, the dampening solution has a surface tension of from about 40 to 50 dynes/cm or less as measured by the duNouy tensiometer device. Isopropyl alcohol has an undiluted surface tension of about 21 dynes/cm and isopropyl alcohol at about 10 to 30 percent by volume in water has a surface tension of between 40 to 50 dynes/cm. […] The point where the optimum ink-water balance control is obtained depends on a combination of complicated factors not yet precisely known. These factors include the design and speed of the press, design of the dampening system, the nature and amount of concentrates that are used in the dampening solution, the nature of the form being printed and the experience of the operator. A typical lower limit of effective use of isopropyl alcohol in continuous flow dampening systems is between about 10 to 15 percent by volume. This corresponds to surface tension values in the range of about 40 to 50 dyne/cm.
# [4] = 20° C.; cited from earlier work
# [5] = cited from earlier work
# [6] = Solubility of the material in heptane; type: physicochemical; conditions: 20° C.
smiles,measurement,setting,value
"CCCC(O)C(CC)CO (stereo not drawn) [2-ethyl-1,3-hexanediol]",solubility,"[1]; water, read-out: Sol. in Water",42 mg/mL
same,Sol. of Water in (material),[2],12 percent by weight
CC(C)O [isopropyl alcohol],surface tension,[3]; about 10 to 30 percent by volume in water,40 to 50 dynes/cm
same,surface tension,"[3]; lower limit of effective use, about 10 to 15 percent by volume",40 to 50 dyne/cm
same,surface tension,[3]; undiluted,about 21 dynes/cm
same,vapor pressure,[4],about 30 mm of Hg
same,heat of vaporization,[5]; at its boiling point of 82° C.,164 callories/gm
"CCCCCCOCCO [n-hexyl Cellosolve, n-hexoxyethylene glycol]",Sol. in Water,[1],1.0 percent by weight
same,Sol. of Water in (material),[2],19 percent by weight
same,Sol. in Heptane,[6],Complete
O [water],vapor pressure,[4],~18 mm of Hg
same,heat of vaporization,[5]; at 100° C.,540 calories/gm
